The values that follow come from US20100267031A1, “Method of Screening for RAGE-Amyloid-Beta Peptide Interaction Inhibiting Materials” (priority 2007, published 2010).

In this data set the test system is bEND.3 cells. In words: Comparison of passage through intercellular space (standard materials, with or without mannitol). Type of data set: in vitro ADME, mouse. To be noted: wells treated with mannitol (0.8 M) vs not treated; 20 min intervals over 120 min. The procedure:
The cells were seeded on the inserts of 24-well Transwell plates and cultured for 5 days as described above examples. F—Na (10 μM, Sigma, Cat No. 28803), FD4 (1 mM, Sigma, Cat No. FD4), and FD40 (25 μM, Sigma, Cat No. FD40S), all labeled with fluorescence (FITC), were used as standard materials for intercellular passage comparison. Mannitol (0.8 M), known to interfere with the formation of intercellular tight junctions, was added to some wells while other wells were not treated with mannitol. Thereafter, the standard materials were added to the wells, followed by monitoring the fluorescence intensity in the lower compartment of the Transwell plates at regular intervals of 20 min over 120 min.
F—Na, FD4 and FD40 were 376 Da, 4,000 Da and 40,000 Da in size, respectively. When tight junctions are formed, the materials which can pass between cells are limited by the sizes thereof. Thus, the standard materials may be used as positive or negative controls. For example, when tight junctions are well formed, FD40 differs in passage through intercellular spaces from F—Na and FD4 due to difference in […] size.

As for `O=C([O-])c1ccccc1-c1c2ccc(=O)cc-2oc2cc([O-])ccc12.[Na+].[Na+]` [F—Na], the “fluorescence intensity in the lower compartment” value is “higher intensities were detected in the wells treated with mannitol”.
